Source: paper PMC11046985 (Neuro-Oncology Advances, 2024)
Read-outs that look alike come from different tables or passages of the source.

Tests used:
[1] = mouse, 30 mg/kg afatinib, CSF from the dura through the atlanto-occipital membrane; cited from earlier work
[2] = system: U87MG human glioblastoma cells; settings: cited from earlier work
[3] = read-out: Maximum concentration (Cmax) of afatinib in plasma; single dose of 40 mg, patients with solid tumors; cited from earlier work
[4] = system: U87EGFRvIII human glioblastoma cells; settings: cited from earlier work
[5] = Afatinib plasma concentration, HPLC-MS/MS, phase I pulsatile afatinib; format: in vivo, human
Protocol: (§1) Pharmacokinetic (PK) data were obtained to guide optimal dose of afatinib. The time of maximum plasma concentration is reported between 2 and 5 hours after dosing.[18],[19]

[6] = system: progressive or recurrent brain cancers; assay: Tumor response by MRI (RANO criteria), PFS, survival, cycles received; format: in vivo, human
Protocol: Tumor response was assessed by MRI after every 2 treatment cycles, or earlier if clinically indicated, according to the Response Assessment in Neuro-Oncology criteria.

[7] = Afatinib CSF concentration (lumbar puncture), HPLC-MS/MS; format: in vivo; settings: human, oral
Protocol: as §1

[8] = 21 patients evaluable for efficacy
[9] = dose cohort 1 (80 mg every 4 days)
[10] = dose cohort 1 (80 mg every 4 days), 2 response-evaluable
[11] = dose cohort 2 (120 mg every 4 days)
[12] = dose cohort 2 (120 mg every 4 days), 3 response-evaluable
[13] = dose cohort 3 (180 mg every 4 days)
[14] = dose cohort 3 (180 mg every 4 days), 6 response-evaluable
[15] = dose cohort 4 (280 mg every 7 days), 10 response-evaluable

CN(C)C/C=C/C(=O)Nc1cc2c(Nc3ccc(F)c(Cl)c3)ncnc2cc1O[C@H]1CCOC1 [Afatinib]
Time of peak concentration in CSF after dosing [1]: one
Inhibitory concentration of 25% (IC25) [2]: approximately 2 μM
Cmax [3]: ~10 nM
Inhibitory concentration of 25% (IC25) [4]: ~1000 nM
Highest afatinib level in blood, one patient ([5]; 120 mg every 4 days cohort): approximately 0.8 μM
Cmax ([5]; human, plasma, 3 hours (± 2 hours) post dosing, oral, all cohorts): < 392 ng/mL
Pre-dose (trough) afatinib levels in blood ([5]; pulse dosing, all cohorts): under 50 nM
Afatinib concentration in blood ([5]; subject 002, Cohort 1: 80 mg q4d, post dosing, C1D8): 12.323 ng/mL
Afatinib concentration in blood ([5]; subject 002, Cohort 1: 80 mg q4d, pre dosing, C1D8): 8.751 ng/mL
Afatinib concentration in blood ([5]; subject 002, Cohort 1: 80 mg q4d, pre dosing, C2D1): 11.693 ng/mL
Afatinib concentration in blood ([5]; subject 002, Cohort 1: 80 mg q4d, pre dosing, EOT (EoC2)): <LLOQ (EoC2)
Afatinib concentration in blood ([5]; subject 003, Cohort 1: 80 mg q4d, post dosing, C1D22): 30.096 ng/mL
Afatinib concentration in blood ([5]; subject 003, Cohort 1: 80 mg q4d, pre dosing, C1D22): 17.318 ng/mL
Afatinib concentration in blood ([5]; subject 004, Cohort 1: 80 mg q4d, pre dosing, C2D1): <LLOQ
Afatinib concentration in blood ([5]; subject 005, Cohort 2: 120 mg q4d, post dosing, C1D15): 37.68 ng/mL
Afatinib concentration in blood ([5]; subject 005, Cohort 2: 120 mg q4d, pre dosing, C2D1): 7.18 ng/mL
Afatinib concentration in blood ([5]; subject 006, Cohort 2: 120 mg q4d, post dosing, C1D15): 66.156 ng/mL
Afatinib concentration in blood ([5]; subject 006, Cohort 2: 120 mg q4d, pre dosing, C1D15): <LLOQ
Afatinib concentration in blood ([5]; subject 006, Cohort 2: 120 mg q4d, pre dosing, C2D1): 10.104 ng/mL
Afatinib concentration in blood ([5]; subject 006, Cohort 2: 120 mg q4d, pre dosing, C3D1): <LLOQ
Afatinib concentration in blood ([5]; subject 006, Cohort 2: 120 mg q4d, pre dosing, C4D1): 11.223 ng/mL
Afatinib concentration in blood ([5]; subject 008, Cohort 2: 120 mg q4d, post dosing, C1D8): 392.01 ng/mL
Afatinib concentration in blood ([5]; subject 008, Cohort 2: 120 mg q4d, pre dosing, C1D8): 22.243 ng/mL
Afatinib concentration in blood ([5]; subject 010, Cohort 3: 180 mg q4d, post dosing, C1D22): 324.265 ng/mL
Afatinib concentration in blood ([5]; subject 010, Cohort 3: 180 mg q4d, pre dosing, C1D22): 43.226 ng/mL
Afatinib concentration in blood ([5]; subject 011, Cohort 3: 180 mg q4d, post dosing, C1D8): 11.705 ng/mL
Afatinib concentration in blood ([5]; subject 011, Cohort 3: 180 mg q4d, pre dosing, C1D8): 11.616 ng/mL
Afatinib concentration in blood ([5]; subject 011, Cohort 3: 180 mg q4d, pre dosing, C3D1): 19.265 ng/mL
Afatinib concentration in blood ([5]; subject 012, Cohort 3: 180 mg q4d, post dosing, C1D15): 96.354 ng/mL
Afatinib concentration in blood ([5]; subject 012, Cohort 3: 180 mg q4d, post dosing, C2D1): 85.834 ng/mL
Afatinib concentration in blood ([5]; subject 012, Cohort 3: 180 mg q4d, pre dosing, C1D15): <LLOQ
Afatinib concentration in blood ([5]; subject 012, Cohort 3: 180 mg q4d, pre dosing, C2D1): <LLOQ
Afatinib concentration in blood ([5]; subject 012, Cohort 3: 180 mg q4d, pre dosing, EOT (EoC4)): 6.402 (EoC4) ng/mL
Afatinib concentration in blood ([5]; subject 013, Cohort 3: 180 mg q4d, pre dosing, C1D15): 10.374 ng/mL
Afatinib concentration in blood ([5]; subject 013, Cohort 3: 180 mg q4d, pre dosing, C2D1): 41.964 ng/mL
Afatinib concentration in blood ([5]; subject 013, Cohort 3: 180 mg q4d, pre dosing, C4D1): 6.787 ng/mL
Afatinib concentration in blood ([5]; subject 014, Expansion Cohort 3: 180 mg q4d, post dosing, C1D8): 60.605 ng/mL
Afatinib concentration in blood ([5]; subject 014, Expansion Cohort 3: 180 mg q4d, pre dosing, C1D8): 11.442 ng/mL
Afatinib concentration in blood ([5]; subject 015, Cohort 4: 280 mg q7d, post dosing, C1D15): 40.694 ng/mL
Afatinib concentration in blood ([5]; subject 015, Cohort 4: 280 mg q7d, pre dosing, EOT (EoC1)): <LLOQ (EoC1)
Afatinib concentration in blood ([5]; subject 016, Cohort 4: 280 mg q7d, post dosing, C1D15): 205.634 ng/mL
Afatinib concentration in blood ([5]; subject 017, Expansion Cohort 3: 180 mg q4d, post dosing, C1D15): 89.884 ng/mL
Afatinib concentration in blood ([5]; subject 017, Expansion Cohort 3: 180 mg q4d, pre dosing, C1D15): 10.425 ng/mL
Afatinib concentration in blood ([5]; subject 017, Expansion Cohort 3: 180 mg q4d, pre dosing, C2D1): 5.708 ng/mL
Afatinib concentration in blood ([5]; subject 017, Expansion Cohort 3: 180 mg q4d, pre dosing, C3D1): <LLOQ
Afatinib concentration in blood ([5]; subject 017, Expansion Cohort 3: 180 mg q4d, pre dosing, C4D1): 6.264 ng/mL
Afatinib concentration in blood ([5]; subject 018, Cohort 4: 280 mg q7d, post dosing, C1D15): 322.557 ng/mL
Afatinib concentration in blood ([5]; subject 018, Cohort 4: 280 mg q7d, post dosing, C2D1): 340.709 ng/mL
Afatinib concentration in blood ([5]; subject 018, Cohort 4: 280 mg q7d, pre dosing, C1D15): 9.603 ng/mL
Afatinib concentration in blood ([5]; subject 018, Cohort 4: 280 mg q7d, pre dosing, C2D1): 22.084 ng/mL
Afatinib concentration in blood ([5]; subject 018, Cohort 4: 280 mg q7d, pre dosing, C3D1): 14.169 ng/mL
Afatinib concentration in blood ([5]; subject 018, Cohort 4: 280 mg q7d, pre dosing, C4D1): 11.731 ng/mL
Afatinib concentration in blood ([5]; subject 018, Cohort 4: 280 mg q7d, pre dosing, EOT (EoC4)): 10.379 (EoC4) ng/mL
Afatinib concentration in blood ([5]; subject 019, Expansion Cohort 4: 280 mg q7d, post dosing, C1D8): 153.973 ng/mL
Afatinib concentration in blood ([5]; subject 019, Expansion Cohort 4: 280 mg q7d, pre dosing, C1D8): 9.857 ng/mL
Afatinib concentration in blood ([5]; subject 019, Expansion Cohort 4: 280 mg q7d, pre dosing, C2D1): 11.805 ng/mL
Afatinib concentration in blood ([5]; subject 019, Expansion Cohort 4: 280 mg q7d, pre dosing, EOT (EoC2)): <LLOQ (EoC2)
Afatinib concentration in blood ([5]; subject 020, Expansion Cohort 4: 280 mg q7d, post dosing, C1D15): 110.625 ng/mL
Afatinib concentration in blood ([5]; subject 020, Expansion Cohort 4: 280 mg q7d, pre dosing, C1D15): 8.586 ng/mL
Afatinib concentration in blood ([5]; subject 020, Expansion Cohort 4: 280 mg q7d, pre dosing, C2D1): 11.278 ng/mL
Afatinib concentration in blood ([5]; subject 021, Expansion Cohort 4: 280 mg q7d, post dosing, C1D15): 40.352 ng/mL
Afatinib concentration in blood ([5]; subject 021, Expansion Cohort 4: 280 mg q7d, pre dosing, C1D15): 5.966 ng/mL
Afatinib concentration in blood ([5]; subject 021, Expansion Cohort 4: 280 mg q7d, pre dosing, C2D1): <LLOQ
Afatinib concentration in blood ([5]; subject 021, Expansion Cohort 4: 280 mg q7d, pre dosing, EOT (C2D15)): <LLOQ (C2D15)
Disease stabilization, % of patients [6, 8]: 14.3%
Disease stabilization, No. of patients [6, 8]: 3
Partial response (RANO), % of patients [6, 8]: 9.5%
Partial response (RANO), No. of patients [6, 8]: 2
Progressive disease, No. of patients [6, 8]: Sixteen
Median overall survival ([6]; all patients): 10.3 months
PFS, Median [6, 9]: 44 days
PFS, Range [6, 9]: 32 to 56 days
Best Response CR, No. of patients [6, 10]: 0
Best Response PD, No. of patients [6, 10]: 2
Best Response PR, No. of patients [6, 10]: 0
Best Response SD, No. of patients [6, 10]: 0
PFS, Median [6, 11]: 42 days
PFS, Range [6, 11]: 29 to 106 days
Best Response CR, No. of patients [6, 12]: 0
Best Response PD, No. of patients [6, 12]: 2
Best Response PR, No. of patients [6, 12]: 1
Best Response SD, No. of patients [6, 12]: 0
PFS, Median [6, 13]: 78 days
PFS, Range [6, 13]: 20 to 261 days
Best Response CR, No. of patients [6, 14]: 0
Best Response PD, No. of patients [6, 14]: 4
Best Response PR, No. of patients [6, 14]: 0
Best Response SD, No. of patients [6, 14]: 2
PFS, Median ([6]; dose cohort 4 (280 mg every 7 days)): 56 days
Best Response CR, No. of patients [6, 15]: 0
Best Response PD, No. of patients [6, 15]: 8
Best Response PR, No. of patients [6, 15]: 1
Best Response SD, No. of patients [6, 15]: 1
Median overall survival ([6]; glioblastoma): 5.2 months
Median progression-free survival ([6]; overall): 2.0 months
Progression-free survival rate at 6 months (PFS6) ([6]; patients with glioblastoma (n = 16)): 0%
concentration at 3 h ([7]; 8 patients, approximately 3 hours after dosing in the first cycle, below lower limit of quantification): < 1.01 ng/mL
concentration at 3 h ([7]; not detected, lower limit of quantification): < 2.09 nM
